Test in all cases: growth of human tumour cells (NCI), 48 h
Test [1] has as its system CAKI-1 renal.
The subject of test [2] is DLD-1 colon.
Test [3] concerns DMS 114 small cell lung.
The test system of test [4] is DMS 273 small cell lung.
Test [5] has as its system HCC-2998 colon.
Test [6] has as its system NCI/ADR-RES ovarian.
For test [7], the system named is RXF 393 renal.
Test [8] concerns SK-MEL-2 melanoma.
In test [9] the test system is SNB-78 CNS.
Test [10] has as its system XF 498 CNS.
For test [11], the system named is BT-549 breast.
For test [12], the system named is M14 melanoma.
For test [13], the system named is MDA-MB-231 breast.
Test [14] relates to PC-3 prostate.
The test system of test [15] is SR leukemia.
Test [16] concerns T-47D breast.
The subject of test [17] is TK-10 renal.
For test [18], the system named is ACHN renal.
Test [19] deals with HS 578T breast.
In test [20] the test system is MDA-N.

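96-well plates; 48 h exposure; 5 concentrations. Endpoints by linear interpolation between flanking doses. Not reached: highest tested concentration assigned. TGI denotes the concentration required for complete inhibition of growth.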

As to `O=c1cc[nH]c(=O)[nH]1`, the TGI was over 920 µM in test [1]; over 1000 µM in test [2]; over 1000 µM in test [3]; over 729 µM in test [4]; 528 µM in [5]; over 562 µM in test [6]. Also, the TGI in test [7] is over 889 µM; in test [8], over 1000 µM; in test [9] it was over 1000 µM; in test [10] it was 7.72 µM.

Turning to `CCOc1ncn(-c2ccc(NC(=S)Nc3ncccn3)cc2)n1`, the TGI in test [11] was 71.1 µM; in test [5], 46 µM; in test [12] it was 91.3 µM; in test [13] it was 64.6 µM; in test [14], over 100 µM; in test [15], 59.5 µM. For the same compound, the TGI is 62.2 µM in [16] and over 100 µM in test [17].

As for `NC(CCCCCP(=O)(c1ccccc1)C1C=CC=CC1)C(=O)O` (configuration not stated), the TGI in [18], in test [11], in test [1], in test [19], in test [12] and in test [13] was over 100 µM in each case. Also, the TGI in test [20], in [6], in test [14], in test [7], in [8] and in [15] was over 100 µM in each case. Further, the TGI in [16] and in test [17] was over 100 µM in each case.
